# Source: patent US7169932B2 (priority 2001, dated 2007)
# Like-named read-outs stand apart in the source and are kept apart here.
# How the values were obtained:
# [1] = target: T1, HIV-1 protease (Q7S) (Human immunodeficiency virus type 1 group M subtype B, UniProt P04585, Q495S); test: HIV-1 Protease RET Assay; assay type: biochemical; conditions: Ave. Ki (nM), RET assay, Q7S enzyme, pH 4.8, 37 C
# T1 construct: made in house
# Procedure, shortened: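 Ki values came from a RET assay on refolded Q7S protease (2 nM active dimer) cleaving RE(EDANS)SQNYPIVQK(DABCYL)R at 5 μM, read at ex 340/em 490 nm. Reactions ran 12 min at 37 C in 0.1M sodium acetate pH 4.8, 1M NaCl, 5 mM DTT, 10% DMSO; curves were fit with the Morrison tight-binding equation.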
# [2] = tested on: HIV-1; test: Cytopathic Effect (CPE) Inhibition Assay (XTT dye reduction); assay type: cell-based; conditions: Human immunodeficiency virus 1, 144 h
# Procedure, shortened: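 CEM-SS or MT-2 cells infected with HIV-1 RF or NL4–3 (moi 0.025–0.819), 2×10^4 cells/well, incubated six days with half-log compound dilutions. Viability read by XTT formazan at 450 nm; EC50 is the concentration restoring 50% of uninfected-control formazan, CC50 from uninfected treated cells, therapeutic index CC50/EC50.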
# [3] = tested on: HIV-1 NL4–3 or HIV-1 NL4–3(184V/L90M); test: Susceptibility assay, p24 ELISA in infected MT-2 cells; assay type: cell-based; conditions: Human immunodeficiency virus 1, MT2, 72 h, read-out: EC50 or IC50 (mM)
# Protocol: T-cell lines, CEM-SS, and MT-2, and viruses HIV-1 RF and HIV-1 NL4–3 (pNL4–3) were obtained from the National Institutes of Health (AIDS Research and Reference Reagent Program, Bethesda, Md.).
# Compounds were tested in phenotypic susceptibility assays at Virologic, Inc., (See Petropoulos C. J., Parkin N. T., Limoli K. L., Lie Y. S., Wrin T., Huang W., Tian H., Smith D., Winslow G. A., Capon D J, Whitcomb J M. 2000, “A novel phenotypic drug susceptibility assay for human immunodeficiency virus type 1,” Antimicrob Agents Chemother 44(4):920–928) or using the assay described here. MT-2 cells were infected with either HIV-1 NL4–3 or HIV-1 NL4–3(184V/L90M) and incubated in the presence of serial 0.5 log dilutions of test compounds. Three days later, culture supernatants were collected and virus production, as determined by p24 ELISA, was assayed. Percent inhibition was calculated as p24 concentration in compound-treated samples as compared to infected, compound-free controls. Inhibition of viral replication is determined by measuring reduction in HIV p24 present in the culture supernatant, using a Beckman-Coulter p24 HIV-1 Ag EIA kit and following the supplied protocol. Absorbance is read on a MRX microplate reader (Dynex Technologies). The EC50 was calculated as the concentration of compound that effected a decrease in the p24 production by infected, compound-treated cells to 50% of that produced by infected, compound-free cells.
# [4] = read-out: Ave CPE EC50 (mM), protection of infected cells, six days, XTT
SMILES,Ki [1] [nM],"EC50 [2, 4] [nM]",EC50 [3] [nM],EC50 ([2]; read-out: Ave CPE EC50 (mM)) [nM],melting point [°C]
"Cc1ccccc1CN(C)C(=O)[C@H]1N(C(=O)[C@@H](O)[C@H](Cc2ccccc2)NC(=O)c2cccc(O)c2C)CSC1(C)C [Example A7, 3-[2-Hydroxy-3-(3-hydroxy-2-methyl-benzoylamino)-4-phenyl-butyryl]-5,5-dimethyl-thiiazolidine-4-carboxylic acid methyl-(2-methyl-benzyl)-amide]",0.49,104,832,,
"Cc1c(O)cccc1C(=O)N[C@@H](Cc1ccccc1)[C@H](O)C(=O)N1CSC(C)(C)[C@H]1C(=O)NCc1c(F)cccc1C(F)(F)F [Example A24, (R)-3-((2S,3S)-2-Hydroxy-3-{[1-(3-hydroxy-2-methyl-phenyl)-methanoyl]-amino}-4-phenyl-butanoyl)-5,5-dimethyl-thiazolidine-4-carboxylic acid fluoro-trifluoromethyl-benzylamide]",0.18,104,831,,
"CC(C)=CCNC(=O)[C@H]1N(C(=O)[C@@H](O)[C@H](Cc2ccccc2)NC(=O)c2cccc(O)c2C)CSC1(C)C [Example A32, (R)-3-((2S,3S)-2-Hydroxy-3-{[1-(3-hydroxy-2-methyl-phenyl)-methanoyl]-amino}-4-phenyl-butanoyl)-5,5-dimethyl-thiazolidine-4-carboxylic acid (3-methyl-but-2-enyl)-amide]",< 0.1,45,486,,
"C/C=C(\C)CNC(=O)[C@H]1N(C(=O)[C@@H](O)[C@H](Cc2ccccc2)NC(=O)c2cccc(O)c2C)CSC1(C)C [Example A35, (R)-3-((2S,3S)-2-Hydroxy-3-{[1-(3-hydroxy-2-methyl-phenyl)-methanoyl]-amino}-4-phenyl-butanoyl)-5,5-dimethyl-thiazolidine-4-carboxylic acid ((E)-2-methyl-but-2-enyl)-amide]",< 0.1,17,63,,
"CC/C=C/CNC(=O)[C@H]1N(C(=O)[C@@H](O)[C@H](Cc2ccccc2)NC(=O)c2cccc(O)c2C)CSC1(C)C [Example A36, (R)-3-((2S,3S)-2-Hydroxy-3-{[1-(3-hydroxy-2-methyl-phenyl)-methanoyl]-amino}-4-phenyl-butanoyl)-5,5-dimethyl-thiazolidine-4-carboxylic acid (E)-pent-2-enylamide]",0.59,,,519,113 to 115
"CC/C=C\CNC(=O)[C@H]1N(C(=O)[C@@H](O)[C@H](Cc2ccccc2)NC(=O)c2cccc(O)c2C)CSC1(C)C [Example A37, (R)-3-((2S,3S)-2-Hydroxy-3-{[1-(3-hydroxy-2-methyl-phenyl)-methanoyl]-amino}-4-phenyl-butanoyl)-5,5-dimethyl-thiazolidine-4-carboxylic acid (Z)-pent-2-enylamide]",0.13,,,161,112 to 113
"C/C=C/CNC(=O)[C@H]1N(C(=O)[C@@H](O)[C@H](Cc2ccccc2)NC(=O)c2cccc(O)c2C)CSC1(C)C [Example A38, (R)-3-((2S,3S)-2-Hydroxy-3-{[1-(3-hydroxy-2-methyl-phenyl)-methanoyl]-amino}-4-phenyl-butanoyl)-5,5-dimethyl-thiazolidine-4-carboxylic acid (E)-but-2-enylamide]",0.17,78,401,,
"Cc1c(O)cccc1C(=O)N[C@@H](Cc1ccccc1)[C@H](O)C(=O)N1CSC(C)(C)[C@H]1C(=O)NCc1cccc(N(C)C)c1 [Example A39, (R)-3-((2S,3S)-2-Hydroxy-3-{[1-(3-hydroxy-2-methyl-phenyl)-methanoyl]-amino}-4-phenyl-butanoyl)-5,5-dimethyl-thiazolidine-4-carboxylic acid 3-dimethylamino-benzylamide]",0.27,,,367,105 to 106
"Cc1c(O)cccc1C(=O)N[C@@H](Cc1ccccc1)[C@H](O)C(=O)N1CSC(C)(C)[C@H]1C(=O)NCc1cccc(O)c1 [Example A42, (R)-3-((2S,3S)-2-Hydroxy-3-{[1-(3-hydroxy-2-methyl-phenyl)-methanoyl]-amino}-4-phenyl-butanoyl)-5,5-dimethyl-thiazolidine-4-carboxylic acid 3-hydroxy-benzylamide]",0.23,126,307,,
"Cc1c(O)cccc1C(=O)N[C@@H](Cc1ccccc1)[C@H](O)C(=O)N1CSC(C)(C)[C@H]1C(=O)NCc1ccccc1O [Example A44, (R)-3-((2S,3S)-2-Hydroxy-3-{[1-(3-hydroxy-2-methyl-phenyl)-methanoyl]-amino}-4-phenyl-butanoyl)-5,5-dimethyl-thiazolidine-4-carboxylic acid 2-hydroxy-benzylamide]",0.14,22,472,,
"Cc1ccccc1CNC(=O)[C@H]1N(C(=O)[C@@H](O)[C@H](Cc2ccccc2)NC(=O)c2ccno2)CSC1(C)C [Example B2, Isoxazole-5-carboxylic acid {(1S,2S)-1-benzyl-3-[(R)-5,5-dimethyl-4-(2-methyl-benzylcarbamoyl)-thiazolidin-3-yl]-2-hydroxy-3-oxo-propyl}-amide]",0.78,,,369,82 to 84
"Cc1ccccc1CNC(=O)[C@H]1N(C(=O)[C@@H](O)[C@H](Cc2ccccc2)NC(=O)c2cccs2)CSC1(C)C [Example B5, (R)-3-{(2S,3S)-2-Hydroxy-4-phenyl-3-[(1-thiophen-2-yl-methanoyl)-amino]-butanoyl}-5,5-dimethyl-thiazolidine-4-carboxylic acid 2-methyl-benzylamide]",1.6,,,508,98 to 101
"Cc1ccccc1CNC(=O)[C@H]1N(C(=O)[C@@H](O)[C@H](Cc2ccccc2)NC(=O)c2ccsc2)CSC1(C)C [Example B6, (R)-3-{(2S,3S)-2-Hydroxy-4-phenyl-3-[(1-thiophen-3-yl-methanoyl)-amino]-butanoyl}-5,5-dimethyl-thiazolidine-4-carboxylic acid 2-methyl-benzylamide]",1.6,,,589,98 to 100
"Cc1ccccc1CNC(=O)[C@H]1N(C(=O)[C@@H](O)[C@H](Cc2ccccc2)NC(=O)[C@@H]2CCCO2)CSC1(C)C [Example B7, (R)-3-{(2S,3S)-2-Hydroxy-4-phenyl-3-[((S)-1-tetrahydro-furan-2-yl-methanoyl)-amino]-butanoyl}-5,5-dimethyl-thiazolidine-4-carboxylic acid 2-methyl-benzylamide]",1.9,,,680,82 to 84
"Cc1ccccc1CNC(=O)[C@H]1N(C(=O)[C@@H](O)[C@H](Cc2ccccc2)NC(=O)c2ccccc2C)CSC1(C)C [Example B16, 3-[2-Hydroxy-3-(2-methyl-benzoylamino)-4-phenyl-butyryl]-5,5-dimethyl-thiazolidine-4-carboxylic acid 2-methyl-benzylamide]",< 0.1,298,1750,,
"Cc1ccccc1CNC(=O)C1N(C(=O)C(O)C(Cc2ccccc2)NC(=O)c2cccc(C)c2C)CSC1(C)C (stereo not drawn) [Example B17, 3-[3-(2,3-Dimethyl-benzoylamino)-2-hydroxy-4-phenyl-butyryl]-5,5-dimethyl-thiazolidine-4-carboxylic acid 2-methyl-benzylamide]",0.42,534,1580,,
"Cc1ccccc1CNC(=O)C1N(C(=O)C(O)C(Cc2ccccc2)NC(=O)c2c(C)c(=O)on2C)CSC1(C)C (stereo not drawn) [Example B19, 2,4-Dimethyl-5-oxo-2,5-dihydro-isoxazole-3-carboxylic acid {1-benzyl-3-[5,5-dimethyl-4-(2-methyl-benzylcarbamoyl)-thiazolidin-3-yl]-2-hydroxy-3-oxo-propyl}-amide]",< 0.1,124,1370,,
"Cc1ccccc1CNC(=O)[C@H]1N(C(=O)[C@@H](O)[C@H](Cc2ccccc2)NC(=O)c2cccc(O)c2C)COC1(C)C [Example C6, (S)-3-((2S,3S)-2-Hydroxy-3-{[1-(3-hydroxy-2-methyl-phenyl)-methanoyl]-amino}-4-phenyl-butanoyl)-5,5-dimethyl-oxazolidine-4-carboxylic acid 2-methyl-benzylamide]",< 0.1,164,1480,,
